Patent US11332463B2, “Spiropiperidine allosteric modulators of nicotinic acetylcholine receptors” (Merck Sharp & Dohme Corp., priority 2018, dated 2022)
Like-named read-outs stand apart in the source and are kept apart here.

Molecular target: T1, human α7 nicotinic acetylcholine receptor (HEK cell line stably expressing human RIC-3 and human α7) (Homo sapiens, UniProt P36544)
T1 construct: host or cells: HEK cell line (PrecisION hnAChR α7/RIC-3)
Assay: Automated patch-clamp electrophysiology functional assay (Assay A), IonFlux HT, whole-cell population patch
Assay type: cell-based

[1] = HEK cells expressing human α7/RIC-3, test compound with or without 40 μM acetylcholine, holding potential −60 mV, room temperature, read-out: α7 nAChR Potency
[2] = automated patch-clamp electrophysiology functional assay (Assay A), read-out: α7 nAChR EC50

T1 sequence (P36544 23-502): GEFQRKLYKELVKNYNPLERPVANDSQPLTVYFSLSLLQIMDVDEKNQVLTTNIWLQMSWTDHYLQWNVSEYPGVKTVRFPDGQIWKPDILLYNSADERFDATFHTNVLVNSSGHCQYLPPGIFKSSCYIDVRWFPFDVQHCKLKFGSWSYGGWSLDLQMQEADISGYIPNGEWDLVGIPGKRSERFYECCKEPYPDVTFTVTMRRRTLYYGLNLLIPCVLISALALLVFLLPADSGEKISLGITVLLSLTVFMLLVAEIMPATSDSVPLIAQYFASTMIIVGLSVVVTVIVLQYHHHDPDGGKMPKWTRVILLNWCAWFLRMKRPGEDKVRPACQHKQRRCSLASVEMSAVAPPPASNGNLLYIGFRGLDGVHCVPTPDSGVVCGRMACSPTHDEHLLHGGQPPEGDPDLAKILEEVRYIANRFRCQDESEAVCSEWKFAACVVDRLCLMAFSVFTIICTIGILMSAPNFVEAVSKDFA

Question: With `NS(=O)(=O)N1CCC2(CC1)C[C@H]2c1noc(-c2ccc(C(F)(F)F)cc2OC(F)F)n1` [Example D9] as the molecule, how does the EC50 [1] read?
Answer: 500 to 5000 nM

Question: And the EC50 [2]?
Answer: 820 nM

Question: With `NS(=O)(=O)N1CCC2(CC1)C[C@H]2c1noc(-c2ccc(Cl)cc2OC(F)F)n1` [Example D10] as the molecule, how does the EC50 [1] read?
Answer: < 100 nM

Question: And the EC50 [2]?
Answer: 88 nM

Question: What does the source list for `NS(=O)(=O)N1CCC2(CC1)C[C@H]2c1noc(-c2cccc(OC(F)F)c2)n1` [Example D11]?
Answer: EC50 [1]: 500 to 5000 nM; EC50 [2]: 510 nM

Question: Which results are given for `NS(=O)(=O)N1CCC2(CC1)C[C@H]2c1noc(-c2c(F)cccc2C(F)(F)F)n1` [Example D12]?
Answer: EC50 [1]: 500 to 5000 nM; EC50 [2]: 1200 nM

Question: With `COc1ccc(-c2nc([C@@H]3CC34CCN(S(N)(=O)=O)CC4)no2)cc1` [Example D13] as the molecule, how does the EC50 [1] read?
Answer: 500 to 5000 nM

Question: What about the EC50 [2] of the same molecule?
Answer: 700 nM

Question: `NS(=O)(=O)N1CCC2(CC1)C[C@H]2c1noc(-c2ccc(OC(F)F)cc2)n1` [Example D14] was tested. Which EC50 [1] did it give?
Answer: 500 to 5000 nM

Question: What does the source list for `NS(=O)(=O)N1CCC2(CC1)C[C@H]2c1noc(-c2ccc(F)cc2F)n1` [Example D15]?
Answer: EC50 [1]: 500 to 5000 nM; EC50 [2]: 1200 nM

Question: Which EC50 [1] does the source give for `NS(=O)(=O)N1CCC2(CC1)C[C@H]2c1noc(-c2ccc(F)cc2C(F)(F)F)n1` [Example D16] here?
Answer: 100 to 500 nM

Question: And the EC50 [2]?
Answer: 160 nM

Question: `NS(=O)(=O)N1CCC2(CC1)C[C@H]2c1noc(-c2ccccc2C(F)(F)F)n1` [Example D17] was tested. Which EC50 [1] did it give?
Answer: 500 to 5000 nM

Question: And the EC50 [2]?
Answer: 630 nM

Question: With `NS(=O)(=O)N1CCC2(CC1)C[C@H]2c1noc(-c2ccccc2OCC(F)(F)F)n1` [Example D18] as the molecule, how does the EC50 [1] read?
Answer: 100 to 500 nM

Question: What about the EC50 [2] of the same molecule?
Answer: 160 nM

Question: `Cc1ccc(-c2nc([C@@H]3CC34CCN(S(N)(=O)=O)CC4)no2)c(C)c1` [Example D19] was tested. Which EC50 [1] did it give?
Answer: 100 to 500 nM

Question: For `NS(=O)(=O)N1CCC2(CC1)C[C@H]2c1noc(-c2ccccc2OC(F)(F)F)n1` [Example D20], which EC50 [1] is on record?
Answer: 100 to 500 nM

Question: What about the EC50 [2] of the same molecule?
Answer: 200 nM

Question: Which EC50 [1] does the source give for `NS(=O)(=O)N1CCC2(CC1)C[C@H]2c1noc(-c2cc(F)ccc2OC(F)(F)F)n1` [Example D21] here?
Answer: 100 to 500 nM

Question: And the EC50 [2]?
Answer: 240 nM

Question: Which EC50 [1] does the source give for `NS(=O)(=O)N1CCC2(CC1)C[C@H]2c1noc(-c2cc(Cl)ccc2OC(F)(F)F)n1` [Example D22] here?
Answer: 100 to 500 nM

Question: What about the EC50 [2] of the same molecule?
Answer: 410 nM

Question: With `CC(C)(O)c1ccc(-c2nc([C@@H]3CC34CCN(S(N)(=O)=O)CC4)no2)cc1` [Example D23] as the molecule, how does the EC50 [1] read?
Answer: 500 to 5000 nM

Question: And the EC50 [2]?
Answer: 1400 nM

Question: For `NS(=O)(=O)N1CCC2(CC1)C[C@H]2c1noc(-c2ccc(F)cc2OC(F)F)n1` [Example D24], which EC50 [1] is on record?
Answer: 100 to 500 nM

Question: What about the EC50 [2] of the same molecule?
Answer: 240 nM

Question: Which results are given for `Cc1cc(C)c(-c2nc(C3CC34CCN(S(N)(=O)=O)CC4)no2)cc1C` (stereo not drawn) [Example D25]?
Answer: EC50 [1]: 100 to 500 nM; EC50 [2]: 130 nM

Question: Which results are given for `NS(=O)(=O)N1CCC2(CC1)C(c1noc(-c3ccccc3C3CC3)n1)C2(F)F` (stereo not drawn) [Example D26]?
Answer: EC50 [1]: < 100 nM; EC50 [2]: 13 nM

Question: Which results are given for `Cc1cn(C2CC2)c2ccc(-c3nc([C@@H]4CC45CCN(S(N)(=O)=O)CC5)no3)cc12` [Example E1]?
Answer: EC50 [1]: 100 to 500 nM; EC50 [2]: 310 nM

Question: For `Cc1ncccc1-c1nc([C@@H]2CC23CCN(S(N)(=O)=O)CC3)no1` [Example E2], which EC50 [1] is on record?
Answer: 500 to 5000 nM

Question: What about the EC50 [2] of the same molecule?
Answer: 1100 nM

Question: `NS(=O)(=O)N1CCC2(CC1)C[C@H]2c1noc(Cc2c(F)cccc2C(F)(F)F)n1` [Example E4] was tested. Which EC50 [1] did it give?
Answer: 5000 to 50000 nM

Question: And the EC50 [2]?
Answer: 7200 nM

Question: With `NS(=O)(=O)N1CCC2(CC1)C[C@H]2c1noc(Cc2cc(C(F)(F)F)ccc2F)n1` [Example E5] as the molecule, how does the EC50 [1] read?
Answer: 500 to 5000 nM

Question: For `Cc1cccc(C)c1Cc1nc([C@@H]2CC23CCN(S(N)(=O)=O)CC3)no1` [Example E6], which EC50 [1] is on record?
Answer: 500 to 5000 nM

Question: What about the EC50 [2] of the same molecule?
Answer: 930 nM

Question: `NS(=O)(=O)N1CCC2(CC1)C[C@H]2c1noc(Cc2cc(F)ccc2C(F)(F)F)n1` [Example E9] was tested. Which EC50 [1] did it give?
Answer: 500 to 5000 nM

Question: Which EC50 [1] does the source give for `NS(=O)(=O)N1CCC2(CC1)C[C@H]2c1noc(C2(c3cc(F)ccc3F)CCC2)n1` [Example E10] here?
Answer: 500 to 5000 nM

Question: What about the EC50 [2] of the same molecule?
Answer: 3400 nM

Question: Which EC50 [1] does the source give for `NS(=O)(=O)N1CCC2(CC1)C[C@H]2c1noc(Cc2ccc(F)cc2C(F)(F)F)n1` [Example E12] here?
Answer: 500 to 5000 nM

Question: What about the EC50 [2] of the same molecule?
Answer: 3700 nM

Question: For `NS(=O)(=O)N1CCC2(CC1)C[C@H]2c1noc(C2(c3cccc(C(F)(F)F)c3)CC2)n1` [Example E14], which EC50 [1] is on record?
Answer: 500 to 5000 nM

Question: What about the EC50 [2] of the same molecule?
Answer: 2000 nM

Question: Which EC50 [1] does the source give for `Cc1ccc(C)c(-c2nc([C@@H]3CC34CCN(S(N)(=O)=O)CC4)no2)n1` [Example E16] here?
Answer: 500 to 5000 nM

Question: And the EC50 [2]?
Answer: 1300 nM

Question: What does the source list for `NS(=O)(=O)N1CCC2(CC1)C[C@H]2c1noc(-c2cccc(C(F)(F)F)n2)n1` [Example E17]?
Answer: EC50 [1]: 500 to 5000 nM; EC50 [2]: 1400 nM

Question: With `NS(=O)(=O)N1CCC2(CC1)C[C@H]2c1noc(-c2ccnc(OCC(F)(F)F)c2)n1` [Example E18] as the molecule, how does the EC50 [1] read?
Answer: 500 to 5000 nM

Question: And the EC50 [2]?
Answer: 1100 nM

Question: Which EC50 [1] does the source give for `Cc1ccc(C(F)(F)F)nc1-c1nc([C@@H]2CC23CCN(S(N)(=O)=O)CC3)no1` [Example E19] here?
Answer: 100 to 500 nM

Question: And the EC50 [2]?
Answer: 290 nM

Question: `NS(=O)(=O)N1CCC2(CC1)C[C@H]2c1noc(C2CC3(CCC3)C2)n1` [Example E20] was tested. Which EC50 [1] did it give?
Answer: 500 to 5000 nM

Question: What about the EC50 [2] of the same molecule?
Answer: 2700 nM

Question: Which results are given for `CCn1nc(C)cc1-c1nc([C@@H]2CC23CCN(S(N)(=O)=O)CC3)no1` [Example E21]?
Answer: EC50 [1]: 100 to 500 nM; EC50 [2]: 400 nM

Question: For `NS(=O)(=O)N1CCC2(CC1)C[C@H]2c1noc(-c2cnn(CC(F)(F)F)c2)n1` [Example E22], which EC50 [1] is on record?
Answer: 500 to 5000 nM

Question: What about the EC50 [2] of the same molecule?
Answer: 3000 nM

Question: Which EC50 [1] does the source give for `NS(=O)(=O)N1CCC2(CC1)C[C@H]2c1noc(-c2ocnc2C(F)(F)F)n1` [Example E23] here?
Answer: 500 to 5000 nM

Question: What about the EC50 [2] of the same molecule?
Answer: 4500 nM

Question: Which results are given for `CCc1ncoc1-c1nc([C@@H]2CC23CCN(S(N)(=O)=O)CC3)no1` [Example E24]?
Answer: EC50 [1]: 500 to 5000 nM; EC50 [2]: 3600 nM

Question: Which results are given for `NS(=O)(=O)N1CCC2(CC1)C[C@H]2c1noc(-c2ccn(CC(F)(F)F)n2)n1` [Example E25]?
Answer: EC50 [1]: 500 to 5000 nM; EC50 [2]: 2200 nM

Question: With `NS(=O)(=O)N1CCC2(CC1)C[C@H]2c1noc(-c2conc2C2CC2)n1` [Example E26] as the molecule, how does the EC50 [1] read?
Answer: 500 to 5000 nM

Question: And the EC50 [2]?
Answer: 570 nM

Question: Which results are given for `Cc1onc(-c2nc([C@@H]3CC34CCN(S(N)(=O)=O)CC4)no2)c1C` [Example E27]?
Answer: EC50 [1]: 500 to 5000 nM; EC50 [2]: 1300 nM

Question: Which EC50 [1] does the source give for `Cc1noc(C)c1Cc1nc([C@@H]2CC23CCN(S(N)(=O)=O)CC3)no1` [Example E28] here?
Answer: 500 to 5000 nM

Question: `NS(=O)(=O)N1CCC2(CC1)C[C@H]2c1noc(-c2conc2C(F)(F)F)n1` [Example E29] was tested. Which EC50 [1] did it give?
Answer: 500 to 5000 nM

Question: What about the EC50 [2] of the same molecule?
Answer: 1600 nM

Question: What does the source list for `NS(=O)(=O)N1CCC2(CC1)C[C@H]2c1noc(-c2ccnn2C2CC2)n1` [Example E30]?
Answer: EC50 [1]: 500 to 5000 nM; EC50 [2]: 780 nM

Question: For `NS(=O)(=O)N1CCC2(CC1)C[C@H]2c1noc(-c2cc(-n3ccnc3)ncc2C(F)(F)F)n1` [Example E31], which EC50 [1] is on record?
Answer: 500 to 5000 nM

Question: What about the EC50 [2] of the same molecule?
Answer: 4300 nM

Question: With `Cn1ncc(C(F)(F)F)c1-c1nc([C@@H]2CC23CCN(S(N)(=O)=O)CC3)no1` [Example E32] as the molecule, how does the EC50 [1] read?
Answer: 100 to 500 nM

Question: And the EC50 [2]?
Answer: 330 nM

Question: How did the EC50 [1] turn out when `NS(=O)(=O)N1CCC2(CC1)[C@H](c1noc(-c3ccnc(OC4CC4)c3)n1)C2(F)F` [Example E33] was run?
Answer: 100 to 500 nM

Question: And the EC50 [2]?
Answer: 470 nM

Question: With `NS(=O)(=O)N1CCC2(CC1)[C@H](c1noc(-c3ccnn3C3CC3)n1)C2(F)F` [Example E34] as the molecule, how does the EC50 [1] read?
Answer: 100 to 500 nM

Question: And the EC50 [2]?
Answer: 130 nM

Question: `CC(C)(C)n1nccc1-c1nc([C@@H]2C(F)(F)C23CCN(S(N)(=O)=O)CC3)no1` [Example E35] was tested. Which EC50 [1] did it give?
Answer: 100 to 500 nM

Question: What about the EC50 [2] of the same molecule?
Answer: 250 nM

Question: Which results are given for `Cc1cnc2cc(-c3nc([C@@H]4C(F)(F)C45CCN(S(N)(=O)=O)CC5)no3)ccn12` [Example E36]?
Answer: EC50 [1]: 500 to 5000 nM; EC50 [2]: 1100 nM

Question: How did the EC50 [1] turn out when `CCn1cc(-c2nc([C@@H]3C(F)(F)C34CCN(S(N)(=O)=O)CC4)no2)c(C2CC2)n1` [Example E37] was run?
Answer: < 100 nM

Question: What about the EC50 [2] of the same molecule?
Answer: 78 nM
